Assay results taken from patent US20050282743A1, “Molecular interactions in cells” (Arbor Vita Corporation, priority 2001, published 2005).
Ends that are not written are not given here. Peptide text beside a SMILES is read from it. * marks the point of attachment. Biotin = O=C1N[C@H]2[C@H](CS[C@H]2CCCCC(=O)*)N1

What was measured:
Assay type in all cases: binding
[1] = target: T1, PDZ protein (GST-PDZ fusion) (Homo sapiens, UniProt Q9NSN8); assay: G' assay (10 uM PL peptide), results of TABLE 7 and TABLE 12; conditions: PDZ Syntrophin gamma-1, PDZ Domain 1
T1 construct: made in house; host or cells: E. coli (DH5alpha, BL21 or JM109)
T1 sequence (Q9NSN8 1-517): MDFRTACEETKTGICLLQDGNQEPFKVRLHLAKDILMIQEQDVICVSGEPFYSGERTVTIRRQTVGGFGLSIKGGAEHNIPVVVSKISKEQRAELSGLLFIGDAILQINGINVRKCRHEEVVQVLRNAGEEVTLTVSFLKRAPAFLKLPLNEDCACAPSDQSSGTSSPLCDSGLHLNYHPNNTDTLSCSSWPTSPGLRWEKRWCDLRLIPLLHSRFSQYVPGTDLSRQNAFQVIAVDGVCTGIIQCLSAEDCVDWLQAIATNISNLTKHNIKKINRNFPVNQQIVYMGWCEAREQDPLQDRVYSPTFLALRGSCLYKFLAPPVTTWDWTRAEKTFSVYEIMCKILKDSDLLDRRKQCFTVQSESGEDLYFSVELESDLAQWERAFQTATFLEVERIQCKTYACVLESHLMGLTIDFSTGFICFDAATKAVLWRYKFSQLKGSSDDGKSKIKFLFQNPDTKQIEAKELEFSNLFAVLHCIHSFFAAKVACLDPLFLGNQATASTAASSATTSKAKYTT
How it was run: (§1)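 Binding classes derive from A450 nm of bound biotin-tagged PL peptide. A score of 5 needs A450 above 4 in more than two repeats.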

[2] = target: T2, PDZ protein (GST-PDZ fusion) (Homo sapiens, UniProt Q13424); assay: as above; conditions: PDZ Synt. 1 alpha, PDZ Domain 1
T2 construct: made in house; host or cells: E. coli (DH5alpha, BL21 or JM109)
T2 sequence (Q13424 1-505): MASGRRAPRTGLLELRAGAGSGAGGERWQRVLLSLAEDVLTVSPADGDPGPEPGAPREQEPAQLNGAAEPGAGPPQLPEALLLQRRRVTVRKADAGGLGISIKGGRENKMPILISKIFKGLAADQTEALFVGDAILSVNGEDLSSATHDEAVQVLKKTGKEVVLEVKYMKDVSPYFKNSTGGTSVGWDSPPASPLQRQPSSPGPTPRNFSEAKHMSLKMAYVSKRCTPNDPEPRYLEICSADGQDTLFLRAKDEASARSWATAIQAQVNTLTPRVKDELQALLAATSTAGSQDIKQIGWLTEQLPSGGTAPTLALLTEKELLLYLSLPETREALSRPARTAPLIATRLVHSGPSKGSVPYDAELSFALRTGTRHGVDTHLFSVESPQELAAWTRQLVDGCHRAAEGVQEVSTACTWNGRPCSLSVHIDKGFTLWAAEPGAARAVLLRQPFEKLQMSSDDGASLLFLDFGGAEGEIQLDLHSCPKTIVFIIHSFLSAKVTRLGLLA
How it was run: as §1

[3] = target: T3, PDZ protein (GST-PDZ fusion) (Homo sapiens, UniProt Q9BYB0); assay: as above; conditions: PDZ SHANK3, PDZ Domain 1
T3 construct: made in house; host or cells: E. coli (DH5alpha, BL21 or JM109)
T3 sequence (Q9BYB0 whole entry, the tested form may be a part): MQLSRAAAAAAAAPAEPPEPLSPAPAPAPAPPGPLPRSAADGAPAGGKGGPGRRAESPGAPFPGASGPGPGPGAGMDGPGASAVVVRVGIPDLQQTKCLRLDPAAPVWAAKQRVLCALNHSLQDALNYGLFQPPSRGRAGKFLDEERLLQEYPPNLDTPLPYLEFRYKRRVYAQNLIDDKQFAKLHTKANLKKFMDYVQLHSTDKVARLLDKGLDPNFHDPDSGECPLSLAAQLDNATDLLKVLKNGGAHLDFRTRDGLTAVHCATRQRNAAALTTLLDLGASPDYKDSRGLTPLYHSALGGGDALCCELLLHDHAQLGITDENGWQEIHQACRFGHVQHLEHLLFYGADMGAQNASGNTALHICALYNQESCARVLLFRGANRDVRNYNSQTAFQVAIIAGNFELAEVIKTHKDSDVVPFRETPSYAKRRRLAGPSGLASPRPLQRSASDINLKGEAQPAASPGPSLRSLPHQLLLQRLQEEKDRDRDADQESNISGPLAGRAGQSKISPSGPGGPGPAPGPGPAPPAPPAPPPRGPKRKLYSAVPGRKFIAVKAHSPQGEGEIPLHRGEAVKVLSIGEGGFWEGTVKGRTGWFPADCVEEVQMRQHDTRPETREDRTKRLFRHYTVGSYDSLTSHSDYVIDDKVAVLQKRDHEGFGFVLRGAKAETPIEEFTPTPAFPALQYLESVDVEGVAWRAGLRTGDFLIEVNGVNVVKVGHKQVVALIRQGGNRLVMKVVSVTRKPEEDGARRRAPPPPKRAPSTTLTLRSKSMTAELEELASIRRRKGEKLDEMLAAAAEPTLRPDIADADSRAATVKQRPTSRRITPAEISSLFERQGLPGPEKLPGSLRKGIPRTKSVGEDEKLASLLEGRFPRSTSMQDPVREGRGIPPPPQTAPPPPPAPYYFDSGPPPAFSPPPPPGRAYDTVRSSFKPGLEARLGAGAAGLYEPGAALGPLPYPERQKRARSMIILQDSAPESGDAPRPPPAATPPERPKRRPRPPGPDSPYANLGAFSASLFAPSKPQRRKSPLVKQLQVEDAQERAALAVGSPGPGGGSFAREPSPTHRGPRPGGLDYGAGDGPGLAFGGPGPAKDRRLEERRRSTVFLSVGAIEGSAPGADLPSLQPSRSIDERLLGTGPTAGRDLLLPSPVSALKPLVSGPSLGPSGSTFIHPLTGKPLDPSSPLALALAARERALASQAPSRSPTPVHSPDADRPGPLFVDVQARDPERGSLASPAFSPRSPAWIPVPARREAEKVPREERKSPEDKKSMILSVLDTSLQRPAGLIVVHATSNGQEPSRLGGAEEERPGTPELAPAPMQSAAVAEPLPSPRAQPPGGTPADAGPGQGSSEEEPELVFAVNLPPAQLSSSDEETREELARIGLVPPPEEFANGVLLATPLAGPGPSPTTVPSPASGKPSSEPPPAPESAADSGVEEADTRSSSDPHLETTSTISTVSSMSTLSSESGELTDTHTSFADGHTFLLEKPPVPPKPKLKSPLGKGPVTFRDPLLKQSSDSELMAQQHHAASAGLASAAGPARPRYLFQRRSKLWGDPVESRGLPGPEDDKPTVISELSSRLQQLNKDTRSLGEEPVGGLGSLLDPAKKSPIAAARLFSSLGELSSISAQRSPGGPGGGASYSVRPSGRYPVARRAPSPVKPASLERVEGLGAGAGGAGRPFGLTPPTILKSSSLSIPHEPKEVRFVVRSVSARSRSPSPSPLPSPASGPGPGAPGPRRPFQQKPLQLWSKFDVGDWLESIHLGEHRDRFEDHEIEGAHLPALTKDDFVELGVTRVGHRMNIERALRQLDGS
How it was run: as §1

[4] = target: T4, PDZ protein (GST-PDZ fusion) (Homo sapiens, UniProt Q8TEW0); assay: as above; conditions: PDZ PAR3, PDZ Domain 3
T4 construct: made in house; host or cells: E. coli (DH5alpha, BL21 or JM109)
How it was run: as §1

[5] = target: T5, PDZ protein (GST-PDZ fusion) (Homo sapiens, UniProt Q9Y2H9); assay: as above; conditions: PDZ KIAA0973, PDZ Domain 1
T5 construct: made in house; host or cells: E. coli (DH5alpha, BL21 or JM109)
T5 sequence (Q9Y2H9 whole entry, the tested form may be a part): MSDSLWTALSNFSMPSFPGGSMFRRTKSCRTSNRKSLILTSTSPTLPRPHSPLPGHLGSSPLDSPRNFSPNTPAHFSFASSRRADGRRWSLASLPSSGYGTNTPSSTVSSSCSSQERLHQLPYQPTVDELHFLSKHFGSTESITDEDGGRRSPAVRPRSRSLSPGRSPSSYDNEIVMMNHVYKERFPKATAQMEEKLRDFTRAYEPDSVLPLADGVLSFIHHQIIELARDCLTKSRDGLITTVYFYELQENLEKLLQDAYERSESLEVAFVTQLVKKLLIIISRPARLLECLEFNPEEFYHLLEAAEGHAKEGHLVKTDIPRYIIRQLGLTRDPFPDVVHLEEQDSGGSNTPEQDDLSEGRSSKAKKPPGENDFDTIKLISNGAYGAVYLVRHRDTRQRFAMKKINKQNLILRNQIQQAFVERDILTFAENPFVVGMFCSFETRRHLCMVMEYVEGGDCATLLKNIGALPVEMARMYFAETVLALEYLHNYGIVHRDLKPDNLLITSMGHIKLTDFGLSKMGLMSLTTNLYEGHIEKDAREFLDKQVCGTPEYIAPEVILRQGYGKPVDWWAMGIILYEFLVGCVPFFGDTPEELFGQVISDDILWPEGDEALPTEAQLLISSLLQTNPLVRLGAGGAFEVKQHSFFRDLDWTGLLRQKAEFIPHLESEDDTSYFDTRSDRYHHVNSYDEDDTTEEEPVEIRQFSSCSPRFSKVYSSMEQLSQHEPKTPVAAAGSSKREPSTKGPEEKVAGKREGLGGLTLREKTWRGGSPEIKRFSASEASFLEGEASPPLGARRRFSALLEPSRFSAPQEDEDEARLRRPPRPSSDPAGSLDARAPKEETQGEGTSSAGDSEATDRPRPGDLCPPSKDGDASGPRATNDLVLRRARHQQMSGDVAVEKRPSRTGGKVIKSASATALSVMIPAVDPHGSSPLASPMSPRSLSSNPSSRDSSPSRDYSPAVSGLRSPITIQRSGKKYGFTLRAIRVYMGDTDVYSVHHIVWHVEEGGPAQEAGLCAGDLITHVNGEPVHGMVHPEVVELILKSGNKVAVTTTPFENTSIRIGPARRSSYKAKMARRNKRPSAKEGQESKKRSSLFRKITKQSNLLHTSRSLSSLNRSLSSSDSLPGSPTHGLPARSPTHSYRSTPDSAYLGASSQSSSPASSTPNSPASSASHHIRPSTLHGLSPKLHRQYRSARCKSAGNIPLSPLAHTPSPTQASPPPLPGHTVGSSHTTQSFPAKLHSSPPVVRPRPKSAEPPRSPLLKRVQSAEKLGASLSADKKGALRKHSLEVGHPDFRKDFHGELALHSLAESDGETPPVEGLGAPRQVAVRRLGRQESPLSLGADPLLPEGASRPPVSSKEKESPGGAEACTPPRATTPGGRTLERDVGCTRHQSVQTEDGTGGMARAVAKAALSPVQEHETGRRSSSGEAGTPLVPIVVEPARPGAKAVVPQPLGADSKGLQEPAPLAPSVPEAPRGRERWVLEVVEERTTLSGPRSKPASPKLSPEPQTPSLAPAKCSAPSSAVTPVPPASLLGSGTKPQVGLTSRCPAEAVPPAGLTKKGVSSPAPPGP
How it was run: as §1

[6] = target: T6, KIAA0807(S) (PDZ Domain 1) (Homo sapiens, UniProt Q6P0Q8); assay: G' assay and Kd titration, TABLE 12; conditions: for Classification: A450 nm class of biotinylated PL peptide bound, 0 in conc columns = peptide 10 uM, protein 5 ug/ml
T6 construct: made in house; host or cells: E. coli (DH5alpha, BL21 or JM109)
T6 sequence (Q6P0Q8 with tags, fused parts or gaps): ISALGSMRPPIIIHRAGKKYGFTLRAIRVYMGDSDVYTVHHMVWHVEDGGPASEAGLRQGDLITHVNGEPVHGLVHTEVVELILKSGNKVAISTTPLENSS

[7] = target: T7, PDZ protein (GST-PDZ fusion) (Homo sapiens, UniProt P29475); assay: G' assay (10 uM PL peptide), results of TABLE 7 and TABLE 12; conditions: PDZ NOS1, PDZ Domain 1
T7 construct: made in house; host or cells: E. coli (DH5alpha, BL21 or JM109)
T7 sequence (P29475 whole entry, the tested form may be a part): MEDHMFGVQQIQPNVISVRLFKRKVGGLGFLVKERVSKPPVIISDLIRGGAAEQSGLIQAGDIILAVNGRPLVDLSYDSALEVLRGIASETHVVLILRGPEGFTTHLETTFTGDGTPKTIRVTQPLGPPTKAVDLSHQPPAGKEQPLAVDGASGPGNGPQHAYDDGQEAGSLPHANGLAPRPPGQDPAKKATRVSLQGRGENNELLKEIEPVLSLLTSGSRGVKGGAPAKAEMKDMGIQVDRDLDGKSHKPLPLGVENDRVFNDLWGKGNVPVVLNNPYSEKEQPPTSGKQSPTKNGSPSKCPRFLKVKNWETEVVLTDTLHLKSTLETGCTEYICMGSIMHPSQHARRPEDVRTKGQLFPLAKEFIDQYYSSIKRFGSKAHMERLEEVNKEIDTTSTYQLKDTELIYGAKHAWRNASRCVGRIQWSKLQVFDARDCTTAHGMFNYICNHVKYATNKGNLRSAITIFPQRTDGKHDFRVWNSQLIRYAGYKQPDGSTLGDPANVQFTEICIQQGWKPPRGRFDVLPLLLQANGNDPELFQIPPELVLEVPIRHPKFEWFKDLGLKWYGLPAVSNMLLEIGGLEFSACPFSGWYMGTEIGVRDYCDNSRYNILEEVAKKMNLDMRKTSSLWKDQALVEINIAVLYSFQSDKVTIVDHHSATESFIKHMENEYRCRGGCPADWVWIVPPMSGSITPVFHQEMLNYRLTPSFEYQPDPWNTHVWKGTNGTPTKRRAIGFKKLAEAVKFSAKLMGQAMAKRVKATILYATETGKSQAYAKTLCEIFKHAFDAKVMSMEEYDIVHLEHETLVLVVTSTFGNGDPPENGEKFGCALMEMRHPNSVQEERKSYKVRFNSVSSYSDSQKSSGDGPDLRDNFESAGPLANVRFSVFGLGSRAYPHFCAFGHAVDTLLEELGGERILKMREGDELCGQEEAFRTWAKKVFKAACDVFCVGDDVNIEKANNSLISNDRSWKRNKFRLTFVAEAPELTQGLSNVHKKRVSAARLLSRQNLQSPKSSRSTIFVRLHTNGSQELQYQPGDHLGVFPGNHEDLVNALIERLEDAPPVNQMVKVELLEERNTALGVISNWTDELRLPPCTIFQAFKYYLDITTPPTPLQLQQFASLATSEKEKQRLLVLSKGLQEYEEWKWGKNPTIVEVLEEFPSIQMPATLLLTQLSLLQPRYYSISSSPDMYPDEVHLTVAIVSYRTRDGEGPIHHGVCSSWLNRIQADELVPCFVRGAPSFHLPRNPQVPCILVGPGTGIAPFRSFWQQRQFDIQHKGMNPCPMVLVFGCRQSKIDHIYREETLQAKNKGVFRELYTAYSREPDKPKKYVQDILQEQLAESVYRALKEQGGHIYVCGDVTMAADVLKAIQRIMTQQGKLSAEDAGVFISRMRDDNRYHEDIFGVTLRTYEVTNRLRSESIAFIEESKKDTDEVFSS
How it was run: as §1

Compound	Classification [1]	Classification [2]	Classification [3]	Classification [5]	further results
CC[C@H](C)[C@H](NC(=O)[C@H](Cc1c[nH]cn1)NC(=O)[C@H](C)NC(=O)[C@H](C)NC(=O)[C@H](CO)NC(=O)[C@@H]1CCCN1C(=O)[C@H](CCCNC(=N)N)NC(=O)[C@H](CC(=O)O)NC(=O)[C@H](CCCCN)NC(=O)[C@@H]1CCCN1C(=O)[C@H](CC(=O)O)NC(=O)[C@H](CCC(=O)O)NC(=O)CCCC[C@@H]1SC[C@@H]2NC(=O)N[C@@H]21)C(=O)N[C@H](C(=O)N[C@@H](CCC(=O)O)C(=O)N[C@@H](C)C(=O)N[C@@H](CC(C)C)C(=O)N[C@@H](CCC(=O)O)C(=O)N[C@H](C(=O)N[C@@H](CC(=O)O)C(=O)N[C@H](C(=O)O)C(C)C)[C@@H](C)O)C(C)C [PDZ-binding kinase (PBK)] (Biotin-EDPKDRPSAAHIVEALETDV-OH; C-terminus assumed)	1 (A450 nm 0-1)	1 (A450 nm 0-1)	–	–	–
CC(C)C[C@H](NC(=O)[C@H](C)NC(=O)[C@@H](NC(=O)[C@H](CCC(=O)O)NC(=O)[C@H](CCCNC(=N)N)NC(=O)[C@H](CCCNC(=N)N)NC(=O)CNC(=O)[C@H](CCC(N)=O)NC(=O)[C@H](CC(C)C)NC(=O)[C@H](CCCNC(=N)N)NC(=O)CNC(=O)CNC(=O)[C@H](CCCNC(=N)N)NC(=O)[C@H](C)NC(=O)[C@H](CO)NC(=O)[C@H](CCCNC(=N)N)NC(=O)CNC(=O)CNC(=O)[C@H](C)NC(=O)[C@H](C)NC(=O)CCCC[C@@H]1SC[C@@H]2NC(=O)N[C@@H]21)[C@@H](C)O)C(=O)O [HPV E6 33 (modified)] (Biotin-AAGGRSARGGRLQGRRETAL-OH; C-terminus assumed)	–	3 (A450 nm 2-3)	2 (A450 nm 1-2)	–	–
CC(C)C[C@H](NC(=O)[C@H](CC(=O)O)NC(=O)[C@H](CO)NC(=O)[C@H](CCC(=O)O)NC(=O)CNC(=O)[C@H](Cc1ccc(O)cc1)NC(=O)[C@H](CC(C)C)NC(=O)[C@H](C)NC(=O)[C@H](CO)NC(=O)[C@H](CO)NC(=O)[C@H](Cc1ccccc1)NC(=O)[C@H](C)NC(=O)[C@H](C)NC(=O)[C@H](Cc1ccc(O)cc1)NC(=O)[C@H](CC(=O)O)NC(=O)[C@H](CC(C)C)NC(=O)[C@H](C)NC(=O)CNC(=O)[C@@H]1CCCN1C(=O)[C@@H](NC(=O)CCCC[C@@H]1SC[C@@H]2NC(=O)N[C@@H]21)C(C)C)C(=O)O [a-actinin 2] (Biotin-VPGALDYAAFSSALYGESDL-OH; C-terminus assumed)	1 (A450 nm 0-1)	3 (A450 nm 2-3)	–	2 (A450 nm 1-2)	Classification [4]: 1 (A450 nm 0-1)
CC(C)C[C@H](NC(=O)[C@H](C)NC(=O)[C@H](CO)NC(=O)CNC(=O)[C@@H](NC(=O)CCCC[C@@H]1SC[C@@H]2NC(=O)N[C@@H]21)[C@@H](C)O)C(=O)N[C@@H](CCC(N)=O)C(=O)N[C@@H](C)C(=O)N[C@@H](Cc1c[nH]c2ccccc12)C(=O)N[C@@H](CCCNC(=N)N)C(=O)N[C@@H](Cc1c[nH]cn1)C(=O)N[C@H](C(=O)N[C@@H](CO)C(=O)N[C@@H](CCCNC(=N)N)C(=O)N[C@@H](CCC(N)=O)C(=O)N[C@@H](C)C(=O)N[C@H](C(=O)N[C@@H](CCC(=O)O)C(=O)N[C@@H](CO)C(=O)N[C@H](C(=O)N[C@H](C(=O)O)C(C)C)[C@@H](C)O)[C@@H](C)O)[C@@H](C)O [HPV E6 #66 (modified)] (Biotin-TGSALQAWRHTSRQATESTV-OH; C-terminus assumed)	1 (A450 nm 0-1)	2 (A450 nm 1-2)	–	–	–
CC[C@H](C)[C@H](NC(=O)[C@H](CO)NC(=O)[C@H](CCC(=O)O)NC(=O)[C@H](Cc1ccc(O)cc1)NC(=O)[C@H](CC(=O)O)NC(=O)[C@H](CC(N)=O)NC(=O)[C@H](CCC(=O)O)NC(=O)[C@H](CCCCN)NC(=O)CCCC[C@@H]1SC[C@@H]2NC(=O)N[C@@H]21)C(=O)N[C@@H](CO)C(=O)N[C@@H](CC(=O)O)C(=O)N[C@@H](CC(C)C)C(=O)N[C@@H](CCC(N)=O)C(=O)N[C@@H](CCC(N)=O)C(=O)NCC(=O)N[C@@H](CCCNC(=N)N)C(=O)N[C@@H](CC(=O)O)C(=O)N[C@H](C(=O)N[C@H](C(=O)N[C@@H](CCCNC(=N)N)C(=O)N[C@@H](CC(C)C)C(=O)O)[C@@H](C)O)[C@@H](C)CC [PAG] (Biotin-KENDYESISDLQQGRDITRL-OH; C-terminus assumed)	–	–	2 (A450 nm 1-2)	–	Classification [6]: 5 (A450 nm of 4 more than 2× repeated); Kd ([6]; titration of PL peptide, KIAA0807(S) protein 0.5 ug/ml, read-out: Peptide Optimal Conc (Kd)): 350 nM
CC[C@H](C)[C@H](NC(=O)[C@H](Cc1ccc(O)cc1)NC(=O)[C@H](CC(C)C)NC(=O)[C@H](CCC(N)=O)NC(=O)[C@H](Cc1c[nH]cn1)NC(=O)[C@H](CO)NC(=O)[C@H](C)NC(=O)[C@H](CC(C)C)NC(=O)[C@@H](NC(=O)[C@H](CC(=O)O)NC(=O)[C@H](CCSC)NC(=O)[C@H](Cc1ccccc1)NC(=O)[C@@H]1CCCN1C(=O)[C@H](CCCNC(=N)N)NC(=O)[C@@H](NC(=O)[C@H](CC(C)C)NC(=O)[C@H](CC(N)=O)NC(=O)[C@H](CC(=O)O)NC(=O)[C@@H](NC(=O)[C@H](CO)NC(=O)CCCC[C@@H]1SC[C@@H]2NC(=O)N[C@@H]21)[C@@H](C)O)C(C)C)[C@@H](C)O)C(=O)O [presenilin-2] (Biotin-STDNLVRPFMDTLASHQLYI-OH; C-terminus assumed)	–	–	–	–	Classification [4]: 5 (A450 nm of 4 more than 2× repeated); Classification [7]: 1 (A450 nm 0-1)
PPATPSPRLALPAHHNATRL (Biotin-PPATPSPRLALPAHHNATRL) [Na+/Pi cotransporter 2]	–	–	5 (A450 nm of 4 more than 2× repeated)	2 (A450 nm 1-2)	–
CC[C@H](C)[C@H](NC(=O)CNC(=O)[C@H](CO)NC(=O)[C@H](Cc1ccccc1)NC(=O)[C@@H](NC(=O)[C@H](CS)NC(=O)CNC(=O)CNC(=O)[C@H](C)NC(=O)[C@@H]1CCCN1C(=O)[C@@H](NC(=O)[C@@H]1CCCN1C(=O)CCCC[C@@H]1SC[C@@H]2NC(=O)N[C@@H]21)[C@@H](C)CC)[C@@H](C)O)C(=O)N[C@@H](Cc1ccccc1)C(=O)N1CCC[C@H]1C(=O)N[C@H](C(=O)N[C@@H](CC(C)C)C(=O)N[C@H](C(=O)N[C@@H](CO)C(=O)N1CCC[C@H]1C(=O)N[C@@H](CC(C)C)C(=O)O)[C@@H](C)O)[C@@H](C)O [KIA 1481] (Biotin-PIPAGGCTFSGIFPTLTSPL-OH; C-terminus assumed)	–	–	3 (A450 nm 2-3)	2 (A450 nm 1-2)	–
LASKSAEEGKQIPDSLSTDL (Biotin-LASKSAEEGKQIPDSLSTDL) [Dock2]	–	–	1 (A450 nm 0-1)	–	Classification [6]: 4 (A450 nm 3-4)
CC[C@H](C)[C@H](NC(=O)[C@H](CCCCN)NC(=O)[C@@H](NC(=O)[C@H](CO)NC(=O)[C@@H]1CCCN1C(=O)[C@H](Cc1ccccc1)NC(=O)[C@@H](NC(=O)[C@@H](NC(=O)[C@H](CCCNC(=N)N)NC(=O)[C@H](CCC(=O)O)NC(=O)[C@H](CC(C)C)NC(=O)[C@H](CC(C)C)NC(=O)[C@H](CC(C)C)NC(=O)[C@@H](NC(=O)CNC(=O)[C@@H](NC(=O)CCCC[C@@H]1SC[C@@H]2NC(=O)N[C@@H]21)C(C)C)[C@@H](C)O)C(C)C)[C@@H](C)CC)C(C)C)C(=O)N[C@@H](C)C(=O)N[C@H](C(=O)N[C@@H](CC(C)C)C(=O)N[C@H](C(=O)O)C(C)C)[C@@H](C)O [Adenovirus E4 Type9]	–	–	–	–	Classification ([7]; PL peptide 10 uM): 5 (A450 nm of 4 more than 2× repeated)
